The values below come from article PMC6010102, “N-thioalkylcarbazoles derivatives as new anti-proliferative agents: synthesis, characterisation and molecular mechanism evaluation” (Journal of Enzyme Inhibition and Medicinal Chemistry, 2018).

By IC50 is commonly meant the midpoint of a concentration-inhibition curve.

In assay [1] the test system is ISHIKAWA human endometrial adenocarcinoma cells. Briefly: MTT cell viability, ISHIKAWA
Type of assay: cell-based. The conditions noted are these: 72 h exposure, mean ± SD, read-out: Antiproliferative activity IC50, ISHIKAWA
From the text:
(§1) The six cell lines used in this work were purchased from American Type Culture Collection (ATCC, Manassas, VA). MCF-7 human breast cancer cells, oestrogen receptor (ER) positives, were maintained in Dulbecco’s Modified Eagle’s Medium/Nutrient Mixture F-12 Ham (DMEM/F12), supplemented with 5% foetal bovine serum (FBS) and 100 U/ml penicillin/streptomycin, as previously described. MDA-MB-231, human breast cancer cells, oestrogen receptor (ER) negative, were maintained in Dulbecco’s Modified Eagle’s Medium/Nutrient Mixture F-12 Ham (DMEM/F12), supplemented with 5% Newborn Calf Serum (NCS) and 100 U/ml penicillin/streptomycin. HeLa human epithelial cervix carcinoma cells, oestrogen receptor (ER) negative, and ISHIKAWA human endometrial adenocarcinoma cell, oestrogen receptor positive, were maintained in minimum essential medium (MEM), supplemented with 10% FBS, 100 U/ml penicillin/streptomycin and 1% non-essential amino acid. 3T3-L1 cells line of murine fibroblasts of embryonic type, were maintained in DMEM, supplemented with 10% NCS and 100 U/ml penicillin/streptomycin. MCF-10A human mammary epithelial cells were cultured in DMEM/F12 medium, supplemented with 5% horse serum (HS) (Eurobio, Les Ullis, Cedex, France), 100 U/ml penicillin/streptomycin, […] hydrocortisone, 20 ng/ml hEGF (human epidermal growth factor), 10 μg/ml insulin and […] cholera enterotoxin (Sigma-Aldrich, Milano, Italy). Cells were maintained at 37 °C in a humidified atmosphere of 95% air and 5% CO2 and periodically screened for contamination.
(§2) MDA-MB-231, MCF-7, HeLa and ISHIKAWA cells were grown in complete medium and, before being treated, they were serum deprived for 24 h, to allow cell cycle synchronisation. Then cells were grown in phenol red-free medium supplemented with 1% DCC (destran-coated charcoal treated) FBS, then treated with increasing concentrations (0.1, 1, 10, 20, 40, 100 µM) of each compound for 72 h. Compounds were dissolved in dimethylsulphoxide (DMSO) (Sigma, St. Louis, MO) and diluted in each cell medium. Untreated cells, used as a control, were added with DMSO alone (final concentration 0.1%). Cell viability was assessed using the 3-[4,5-dimethylthiazol-2-yl]-2,5-diphenyltetrazolium bromide reagent (MTT), according to the protocol from manufacturer (Sigma-Aldrich, Milan, Italy), as previously described[37] ^, [38]. For each sample, the mean absorbance, measured at 570 nm, was expressed as a percentage of the control and plotted versus drug concentration to determine for each cell line the IC50 values (namely, drugs concentrations able to reduce cell viability of 50% with respect to the control), using GraphPad Prism 5 Software (GraphPad Inc., San Diego, CA)[39]. Each experiment was carried out in quadruplicate. Standard deviations (SD) were shown.

For assay [2], the system named is MCF-10A human mammary epithelial cells. The assay can be described thus: MTT cell viability, MCF-10A. Type of assay: cell-based. As to conditions: non-tumoural cells, 72 h exposure, mean ± SD, read-out: Antiproliferative activity IC50, MCF-10a.
Description: as §1, §2

Another assay concerns the target T1, hTopoI (Homo sapiens, UniProt P11387).
T1 sequence (P11387 1-765): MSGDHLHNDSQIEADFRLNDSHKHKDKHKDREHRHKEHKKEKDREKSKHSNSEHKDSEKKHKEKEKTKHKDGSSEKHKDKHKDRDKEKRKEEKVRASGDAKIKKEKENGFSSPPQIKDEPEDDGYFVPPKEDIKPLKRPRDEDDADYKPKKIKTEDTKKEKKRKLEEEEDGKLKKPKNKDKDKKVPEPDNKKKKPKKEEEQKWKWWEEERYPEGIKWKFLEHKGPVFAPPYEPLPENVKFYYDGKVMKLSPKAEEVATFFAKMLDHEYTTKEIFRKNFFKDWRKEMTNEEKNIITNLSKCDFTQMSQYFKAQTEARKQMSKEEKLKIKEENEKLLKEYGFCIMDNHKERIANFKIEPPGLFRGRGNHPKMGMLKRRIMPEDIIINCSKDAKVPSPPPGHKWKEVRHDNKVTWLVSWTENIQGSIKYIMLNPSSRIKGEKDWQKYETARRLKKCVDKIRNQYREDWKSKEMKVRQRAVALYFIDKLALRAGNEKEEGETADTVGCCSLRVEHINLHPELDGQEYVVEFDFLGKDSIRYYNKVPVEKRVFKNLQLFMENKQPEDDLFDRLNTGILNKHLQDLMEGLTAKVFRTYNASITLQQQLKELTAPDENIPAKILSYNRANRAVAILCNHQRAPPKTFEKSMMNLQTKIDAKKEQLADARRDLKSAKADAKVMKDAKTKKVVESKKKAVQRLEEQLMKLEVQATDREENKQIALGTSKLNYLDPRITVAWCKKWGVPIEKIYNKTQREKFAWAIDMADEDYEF
Briefly: Human topoisomerase I relaxation assay. As to conditions: direct in vitro assay, data not shown. Type of assay: biochemical. The procedure: Human topoisomerase I relaxation assay: hTopoI relaxation assays were performed as reported in Iacopetta et al.[8].

A further assay has as its system HeLa cells. Briefly: TUNEL assay in HeLa cells. The conditions noted are these: concentration equal to IC50, 24 h. Type of assay: cell-based, human. On the procedure: Apoptosis was detected by the TUNEL assay, according to the guidelines of the manufacturer (CF™488A TUNEL Assay Apoptosis Detection Kit, Biotium, Hayward, CA)[8]. Briefly, cells were grown on glass coverslips and, after treatment, they were washed trice with PBS, then methanol-fixed at −20 °C for 15 min. Fixed cells were washed trice with 0.01% (V/V) Triton X-100 in PBS and incubated with 100 µL of TUNEL equilibration buffer for 5 min. After its removal, 50 µL of TUNEL reaction mixture containing 1 µL of terminal deoxynucleotidyl transferase (TdT) were added to each sample and incubated in a dark and humidified chamber for 2 h at 37 °C. Samples were washed trice with ice-cold phosphate-buffered saline (PBS) containing 0.1% Triton X-100 and 5 mg/mL bovine serum albumin (BSA). 2-(4-Amidinophenyl)-6-indolecarbamidine dihydrochloride (DAPI) (0.2 µg/mL) counterstain was performed (10 min, 37 °C, dark and humidified conditions). After three additional washes with cold PBS, one drop of mounting solution was added, then they were observed and imaged under a fluorescence microscope (Leica DM 6000, Leica, Frankfurt am Main, Germany) (20× magnification) with excitation/emission wavelength maxima of 490 nm/515 nm (CF^TM488A) or 350 nm/460 nm (DAPI). Representative fields were shown. The experiments were repeated three times.

A further assay deals with caspase-9. Briefly: Caspase-Glo assay, caspase-9. Type of assay: cell-based, human. The conditions noted are these: HeLa cells, concentration equal to IC50, 24 h. On the procedure:
Caspases-3/7, -8 and -9 activities were measured with the Caspase-Glo Assay, according to the guidelines of manufacturer (Caspase-Glo® 3/7, 8 and 9 Assay Systems, Promega Corporation, Madison, WI) as described in Iacopetta et al.[43].

Turning to `Cc1ccc(C)c2c1c1cc(Br)ccc1n2CCCCCCCS` [5c, 7-(6-Bromo-1,4-dimethyl-9H-carbazol-9-yl)-heptane-1-thiol], the IC50 in assay [1] was 15.7 ± 0.95 µM; in assay [2], over 100 µM. In addition, at hTopoI, the hTopoI inhibition entry is recorded as “no inhibition”. In addition, the “apoptosis / DNA damage (TUNEL)” value in the assay with HeLa cells is “induced DNA damage and led to cell death triggering the apoptotic mechanism”. In addition, in the assay with caspase-9, the caspase-9 activity entry is on record as “little, but significant, rise of caspase-9 activity”.
